For 1 compound, IC50 results are on record in paper PMC10986179, “PCC0208057 as a small molecule inhibitor of TRPC6 in the treatment of prostate cancer” (Frontiers in Pharmacology, 2024).

What is called IC50 is the concentration that inhibits the measured activity by half.

The target of this assay is T1, TRPC6 (transient receptor potential canonical 6) (Homo sapiens, UniProt Q9Y210).
T1 sequence (Q9Y210 1-931): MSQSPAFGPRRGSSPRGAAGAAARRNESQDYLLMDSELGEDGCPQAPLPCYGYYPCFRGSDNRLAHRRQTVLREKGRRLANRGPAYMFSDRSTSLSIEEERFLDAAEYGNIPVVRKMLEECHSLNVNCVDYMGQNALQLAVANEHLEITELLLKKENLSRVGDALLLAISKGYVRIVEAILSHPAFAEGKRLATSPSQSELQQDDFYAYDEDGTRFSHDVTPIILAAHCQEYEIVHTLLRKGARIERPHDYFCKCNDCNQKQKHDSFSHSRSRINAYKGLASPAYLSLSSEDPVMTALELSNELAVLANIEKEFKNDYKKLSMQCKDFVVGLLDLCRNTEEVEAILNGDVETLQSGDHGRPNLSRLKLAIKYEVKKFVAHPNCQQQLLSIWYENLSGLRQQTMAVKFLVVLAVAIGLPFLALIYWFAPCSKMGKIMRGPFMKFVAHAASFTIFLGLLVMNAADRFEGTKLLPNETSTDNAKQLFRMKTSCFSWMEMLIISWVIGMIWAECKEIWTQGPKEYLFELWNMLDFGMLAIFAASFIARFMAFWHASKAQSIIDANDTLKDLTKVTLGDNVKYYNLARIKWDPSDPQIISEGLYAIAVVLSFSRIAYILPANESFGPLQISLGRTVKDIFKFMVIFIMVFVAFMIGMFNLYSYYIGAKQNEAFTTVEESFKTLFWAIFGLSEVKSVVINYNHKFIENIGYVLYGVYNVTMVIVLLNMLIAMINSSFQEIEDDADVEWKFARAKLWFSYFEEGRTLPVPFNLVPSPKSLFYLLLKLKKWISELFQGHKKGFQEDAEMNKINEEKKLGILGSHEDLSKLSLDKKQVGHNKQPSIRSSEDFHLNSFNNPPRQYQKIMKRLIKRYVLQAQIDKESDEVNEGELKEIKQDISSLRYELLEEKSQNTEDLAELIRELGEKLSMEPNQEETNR
The experiment in a line: Fluo-4 Ca2+ assay in TRPC6-HEK293 cells; also electrophysiology of GSK1702934A-evoked TRPC6 currents. The format is cell-based.

Consider `COc1cccc2sc(N(CCN3CCCC3)C(=O)c3ccc4c(c3)OCO4)nc12` [PCC0208057], for which the midpoint of inhibition, the IC50, lay at 2.44 µM.
